Where “and” joins values, the source holds several entries; their conditions need not be identical. Identical values can stand only once. Calls of active or inactive are those of the source.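 How the source made its calls: active means compounds giving half or more protection of infected cells from virus-caused growth loss, again on retest; inactive means the rest.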
Test system: CEM cells HIV-1 protection, formazan growth assay
Test: NCI AIDS Antiviral Assay
Details: for IC50: measured here: growth of uninfected CEM cells
How it was run: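 Protection of CEM cells against HIV-1 measured as cell growth via soluble formazan read-out, with five concentrations tested on both infected and uninfected cells; failure to protect may reflect toxicity.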

COc1ccc(OC)c(NS(=O)(=O)c2ccc3nc(C)n(NS(=O)(=O)c4cc(OC)ccc4OC)c(=O)c3c2)c1
EC50: > 200 µM
IC50: 43.7 µM

CCCCCCC[C@@H](O)CC(=O)NC(CC(C)C)C(=O)NC(CCC(=O)O)C(=O)NC1C(=O)NC(C(C)C)C(=O)NC(CC(C)C)C(=O)NC(CO)C(=O)NC(CC(C)C)C(=O)NC(CO)C(=O)NC(C(C)CC)C(=O)OC1C (some centres not stated)
EC50: 91.2 µM
IC50: 166 µM

COc1cccc(CC2C(=O)NC(=O)NC2=O)c1
EC50: > 200 µM
IC50: > 200 µM

NC1=Nc2cc(Cl)ccc2Sc2nc3ccccc3n21
EC50: > 200 µM
IC50: 20.9 µM

C=C[C@H]1C=Cc2c(OC)cccc2[C@@H]1COP1(=S)NC(C)C(c2ccccc2)O1 (some centres not stated)
outcome: inactive

COc1cccc2c1C(=O)c1c(O)c3c(c(O)c1C2=O)CC1(O)CC3OC1(C)OC (configuration not stated)
EC50: > 4.57 µM
IC50: > 4.57 µM

COc1cc(C2c3cc4c(cc3[C@H](NC(=O)c3cccs3)C3COC(=O)[C@H]23)OCO4)cc(OC)c1OC (some centres not stated)
outcome: inactive

O=C1c2c(n(Cc3ccccc3)c(=O)n2Cc2ccccc2)C(=O)N1Cc1ccccc1
EC50: > 17 µM
IC50: > 17 µM

COC(=O)C1(C(=O)OC)N=C(C)OC1c1ccccn1 (configuration not stated)
EC50: > 200 µM
IC50: > 200 µM

CC1=C([N+](=O)[O-])[C@@H](N2CCOCC2)[C@](C)(N2CCOCC2)S1
outcome: inactive

CC(=O)N1CCN(C23OC4(N5CCN(C(C)=O)CC5)C5C6CC(C7C6C4C72)C53)CC1 (configuration not stated)
EC50: > 200 µM
IC50: > 200 µM

CCCCCCCCCCCCCCCCCC(=O)OCC(COC1OC(CS(=O)(=O)O)C(O)C(O)C1O)OC(=O)CCCCCCCCCCCCCCCCC (configuration not stated)
EC50: 11.7 µM and > 20.4 µM
outcome: inactive
IC50: 138 µM and > 20.4 µM

O=C1CCCC2=C1CC1=C(CCCC1=O)N2c1ccccc1
EC50: > 100 µM
IC50: > 100 µM

CC(C)CCCC(C)[C@H]1CC[C@@H]2[C@H]3CC[C@H]4C[C@@H](CCC=C(c5cc(Cl)c(OCc6cccc([N+](=O)[O-])c6)c(C(=O)O)c5)c5cc(Cl)c(OCc6cccc([N+](=O)[O-])c6)c(C(=O)O)c5)CC[C@]4(C)[C@@H]3CC[C@]12C (some centres not stated)
EC50: > 200 µM
IC50: > 200 µM

CC1=CC(c2ccccc2)OP1(=O)c1ccccc1 (configuration not stated)
EC50: > 200 µM
IC50: > 200 µM

COc1ccc(N2C(N)=C(C#N)C(C#N)(C#N)C2c2cccc([N+](=O)[O-])c2)cc1 (configuration not stated)
EC50: > 200 µM
IC50: 5.89 µM

O=C1OC2(c3ccccc31)c1ccccc1-c1ccccc12
EC50: > 66.1 µM
IC50: > 66.1 µM

O=P1(Cc2ccccc2)C(c2ccccc2)=C(O)C2CCCC21 (configuration not stated)
EC50: > 112 µM
IC50: > 112 µM

Cc1cc2cc3cc(C)c(N)cc3nc2cc1N
EC50: > 2 µM
IC50: 0.661 µM

O=[N+]([O-])/C(C(Cl)=C(Cl)Cl)=C(/Sc1ccccc1)N1CCCCC1
EC50: > 195 µM
IC50: 12.9 µM

COc1cc(OC)cc(C(=O)CC(=O)c2cc(OC)cc(OC)c2)c1
EC50: > 20.9 µM
IC50: 15.5 µM

O=C1/C(=C/c2ccccc2F)CCc2ccccc21
EC50: > 10.7 µM
IC50: > 10.7 µM

CCCOC(C(=O)OC1CCC2CCC1N2C)(c1ccccc1)c1ccccc1 (configuration not stated)
EC50: > 200 µM
IC50: 28.8 µM

CN1C(=O)C(C)(O)Sc2ccccc21 (configuration not stated)
EC50: > 1200 µM
IC50: 501 µM

O=C1c2ccc(O)c(O)c2C(=O)c2c(O)ccc(O)c21
EC50: > 63.1 µM
IC50: 11.7 µM

CN(C)c1ccc(C(Cc2ccccc2)C2NC(=S)NC2=O)cc1 (configuration not stated)
EC50: > 200 µM
IC50: 15.5 µM

O=C1NC2CSC(CCCCC(=O)ON3C(=O)CCC3=O)C2N1 (configuration not stated)
EC50: > 741 µM
IC50: 123 µM

O=C(O)c1cccc(S(=O)(=O)NN2C(=O)CSC2c2c(O)ccc3ccccc23)c1 (configuration not stated)
EC50: > 200 µM
IC50: 29.5 µM

CCSC(=O)/C=C1\CN(C(=O)OC(C)(C)C)C1C(=O)OC(C)(C)C (configuration not stated)
EC50: > 200 µM
IC50: 1.1 µM

CC1(C)OC2C(CF)OC(n3cc(Br)c(=O)[nH]c3=O)C2O1 (configuration not stated)
EC50: > 200 µM
IC50: > 200 µM

Sc1ccccc1N=Cc1ccc(C=Nc2ccccc2S)cc1
EC50: > 200 µM
IC50: > 200 µM

CNC(=O)CN(C)C(=O)CCC(=O)N(C)C
EC50: > 200 µM
IC50: > 200 µM

CC(C)(C)C1CCC(C[Se]c2ccccc2)([N+](=O)[O-])CC1 (configuration not stated)
outcome: inactive

COc1cc(/C=C2\SC(=S)N(/C=C3\C(=O)C=C(C)OC3=O)C2=O)cc(OC)c1OC
EC50: > 200 µM
IC50: 18.2 µM

Cc1cccc(NC(=S)N=Nc2c(O)[nH]c3ccccc23)c1
EC50: > 200 µM
IC50: 117 µM

CCOC(=O)c1ccc(CS(=O)c2ccc([N+](=O)[O-])cc2)c([N+](=O)[O-])c1 (configuration not stated)
EC50: > 69.2 µM
IC50: 21.4 µM

CCOc1ccccc1NC(=O)CC1C(=O)Nc2ccccc2S1=O (configuration not stated)
EC50: > 38 µM
IC50: > 38 µM

C(=Nc1cnc2ccccc2c1)c1ccc2ccccc2n1
EC50: > 35.5 µM
IC50: 19.1 µM

C1=C(c2ccccc2)N2CCN=C2S1
EC50: > 200 µM
IC50: 37.2 µM

O=C(c1ccccc1)C(c1ccccc1)C1(O)C(=O)Nc2ccc([N+](=O)[O-])cc21 (configuration not stated)
EC50: > 25.7 µM
IC50: > 25.7 µM

CC1(c2ccccc2)Oc2ccccc2-n2cccc2C1=O (configuration not stated)
EC50: 2.4 µM
IC50: 12.9 µM

C=C(O)c1ccccc1C#Cc1ccccc1C(=O)OC
EC50: > 200 µM
IC50: > 100 µM

O=C(O)CN(CCOCCOCCN(CC(=O)O)CC(=O)O)CC(=O)O
EC50: > 95.5 µM
IC50: 3.02 µM

NNC(=S)N/N=C(\CC1OC(=O)c2ccccc21)c1ccccc1O (configuration not stated)
EC50: > 363 µM
IC50: 209 µM

COC(=O)CSc1cc(Cl)c(C)cc1S(=O)(=O)Nc1n[nH]c(N)n1
EC50: > 200 µM
IC50: > 200 µM

Cc1ccc(-c2cc(=O)c3cc(C)c(C)c(C(=O)O)c3o2)cc1C
outcome: inactive

Cc1cc(O)c(C=NC(=S)c2ccncc2)c(=O)o1
EC50: > 200 µM
IC50: > 200 µM

CN(C)c1cccc2c(S(=O)(=O)NCCCNCCN)cccc12
EC50: > 200 µM
IC50: 66.1 µM

COc1ccc(-c2c(O)c3c(OC)cc(OC)cc3oc2=O)cc1
EC50: > 200 µM
IC50: 158 µM

CN(C)CC(O)CNC(=O)Nc1ccccc1 (configuration not stated)
EC50: > 200 µM
IC50: > 200 µM

CN(CCn1cnc2c1c(=O)n(C)c(=O)n2C)C1CCCCC1
EC50: > 200 µM
IC50: > 200 µM

CN(C)/N=C1\CC(c2ccccc2)C(C#N)(C#N)C1(C#N)C#N (configuration not stated)
EC50: > 200 µM
IC50: 5.62 µM

O=C(O)C1C2C=CC(C(/C=C/c3ccccc3)N2)C1C(=O)O (configuration not stated)
EC50: > 200 µM
IC50: > 200 µM

COC(=O)c1cc(C)n(NC(=O)OC(C)(C)C)c1C
EC50: > 251 µM
IC50: > 251 µM

NC(=S)N/N=C1\C(=O)N(c2cccc([N+](=O)[O-])c2)C(=O)C1C(=O)Nc1cccc([N+](=O)[O-])c1 (configuration not stated)
outcome: inactive

NCCN.NCCN.O=C([O-])[O-].O=C([O-])[O-].[Co+3]
outcome: inactive

CCOC(=O)c1sc(SC)nc1N
EC50: > 200 µM
IC50: > 200 µM

O=CC[C@]12CC(=O)OC(C=CC13OCCO3)C2
EC50: > 200 µM
IC50: > 200 µM

Cc1cn(C2CCC(CO)(C(F)(F)F)O2)c(=O)[nH]c1=O (configuration not stated)
EC50: > 200 µM
IC50: > 200 µM

CC(C)=CCN1Cc2c(Cl)ccc3[nH]c(=S)n(c23)C[C@@H]1C
EC50: 0.00224 µM
IC50: 5.89 µM

CC1CCCC(C)C(Sc2ccccc2)=C1Sc1ccccc1 (configuration not stated)
outcome: inactive

Cc1cn(C2CC3C(COC(c4ccccc4)N3O)O2)c(=O)[nH]c1=O (configuration not stated)
EC50: > 200 µM
IC50: 34.7 µM
